The nature of data set [1]: Ex vivo bioassay of blood concentration after oral administration (fibroblast collagenase / 14C collagen read-out). Also noted: species or system male Lewis rats. Conditions: 10mg/kg oral, suspension in PBS/Tween, with versus without CyA (0.3mg/kg); 0.5 to 24 hrs, n=6. The protocol: Compound 1(10mg/kg)±CyA (0.3mg/kg) [in PBS/0.01% Tween 80™] was administered to healthy male Lewis rats (as above). Blood samples (0.5ml into a syringe containing 0.1 ml acid citrate dextroset as anticoagulant) were removed from the ventro-lateral tail vein of the halothane anaestetised rat at t= prebleed, 0.5, 1, 2, 6 and 24 hrs. 3mls methanol was added to each blood sample, mixed and centrifuged at 3000 r.p.m. for 15 minutes (using Beckman GPKR centrifuge). 2.0ml of the methanol supematant was removed and evaporated dry. The pellet was redisolved in 200µl DMSO (dimethylsulphoxide). An aliquot of the solubilised pellet was assayed against fibroblast collagenase using ^14C collagen as substrate, as follows: 15µl fibroblast collagenase at suitable dilution. 100µl collagenase assay buffer* 10µl solubilised pellet 75µl ddH2O 100µl ^14C collagen † Acid citrate dextrose, pH4.5 (13.65g citric acid, 25g tri-sodium citrate & 20g d-glucose per litre of water) * (50mM Tris (pH 7.4), 5mM CaCl2, 0.05% Brij, 0.02% NaN3)
Samples were incubated overnight at 37°C and undigested substrate removed by centrifugation at 11,600 r.p.m. for 15 mins (using Heraeus Biofuge 15). […]
A calibration curve for the test compound of interest was run alongside the blood samples. The concentration of the test compound in the blood was then calculated from the calibration curve.

Data set [2] has as its system adjuvant-induced arthritis. The experiment in a line: Rat adjuvant-induced arthritis model. Type of data set: in vivo, male Lewis rat. How it is done:
Mean of 10 readings was recorded.
Drugs were formulated fresh for each administration.

The conditions of data set [3]: Twentyman 1992; cited from earlier work.

`C=CC[C@H](C(=O)NO)[C@@H](CC(C)C)C(=O)N[C@H](C(=O)NC)C(C)(C)C` [Compound 1, 3R-(2,2-Dimethyl-1S-methylcarbamoyl-propylcarbamoyl)-5-methyl-2S-2-propenyl-hexanohydroxamic acid]: the “blood concentration of Compound 1” value in data set [1] is given as “equivalent”. Also, in data set [2] (Compound 1 at doses at or below 10mg/kg, po, bid (data not shown)), the “reducing the paw volume (swelling)” value is listed as “ineffective”. Moreover, the effect on arthritis entry in data set [2] (given alone, po, bid: Compound 1 (10mg/ml), Cyclosporin A (0.3mg/ml)) was “very little or no effect”. `CNC(=O)[C@H](Cc1ccccc1)NC(=O)[C@H](CC(C)C)[C@H](CSc1cccs1)C(=O)NO` [Compound 2, [4-(N-Hydroxyamino)-2R-isobutyl-3S-(thiophenylthiomethyl)succinyl]-L-phenylalanine-N-methylamide]: in data set [2] (Compound 2 at 5mg/kg ip, bid, with cyclosporin A at 0.3mg/kg ip), the “synergy with cyclosporin A” value is on record as “act in synergy”. Consider `C/C=C/C[C@@H](C)C(=O)[C@H]1C(=O)N[C@@H](C(C)C)C(=O)N(C)CC(=O)N(C)[C@@H](CC(C)C)C(=O)N[C@@H](C(C)C)C(=O)N(C)[C@@H](CC(C)C)C(=O)N[C@@H](C)C(=O)N[C@H](C)C(=O)N(C)[C@@H](CC(C)C)C(=O)N(C)[C@@H](CC(C)C)C(=O)N(C)[C@@H](C(C)C)C(=O)N1C` [PSC-833], for which the “potency relative to CyA” value in data set [3] is recorded as “approximately 10 fold”.

The values are drawn from patent EP0936918B1, “COMBINATION THERAPY FOR TREATMENT OF ARTHRITIC DISEASES” (BRITISH BIOTECH PHARMACEUTICALS LIMITED, priority 1996, dated 1998).
